From the supplement of paper PMC10307832

Assays:
Assay in all cases: relative viability (nuclei count vs DMSO), 5 days (fraction); higher = more cells survive
EPLC-272H = tested on: EPLC-272H
Summary of the method: (§1)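 Medians of duplicate plates are given as relative viability. That measure is the nuclei count in treated wells divided by the count in vehicle wells. Counts were taken on 4× images of lung cancer cell lines in 1536-well plates, 5 days after pin-tool dosing the day after seeding with one drug alone or a fixed anchor-drug dose plus five library-drug doses (not always all listed) in √10 steps.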

HARA = tested on: HARA
Summary of the method: as §1

COR-L 105 = tested on: COR-L 105
Summary of the method: as §1

ChaGo-K-1 = tested on: ChaGo-K-1
Summary of the method: as §1

NCI-H1792 = tested on: NCI-H1792
Summary of the method: as §1

NCI-H1734 = tested on: NCI-H1734
Summary of the method: as §1

EKVX = tested on: EKVX
Summary of the method: as §1

NCI-H647 = tested on: NCI-H647
Summary of the method: as §1

NCI-H2405 = tested on: NCI-H2405
Summary of the method: as §1

RERF-LC-KJ = tested on: RERF-LC-KJ
Summary of the method: as §1

NCI-H1993 = tested on: NCI-H1993
Summary of the method: as §1

SW 900 = tested on: SW 900
Summary of the method: as §1

HCC-44 = tested on: HCC-44
Summary of the method: as §1

A-427 = tested on: A-427
Summary of the method: as §1

NCI-H522 = tested on: NCI-H522
Summary of the method: as §1

NCI-H460 = tested on: NCI-H460
Summary of the method: as §1

NCI-H1650 = tested on: NCI-H1650
Summary of the method: as §1

LU99A = tested on: LU99A
Summary of the method: as §1

LK-2 = tested on: LK-2
Summary of the method: as §1

NCI-H358 = tested on: NCI-H358
Summary of the method: as §1

NCI-H1755 = tested on: NCI-H1755
Summary of the method: as §1

EMC-BAC-2 = tested on: EMC-BAC-2
Summary of the method: as §1

## Cc1cn(-c2cc(NC(=O)c3ccc(C)c(Nc4nccc(-c5cccnc5)n4)c3)cc(C(F)(F)F)c2)cn1 [Nilotinib] + Nc1ncn([C@H]2C[C@H](O)[C@@H](CO)O2)c(=O)n1 [Decitabine] (partner 2 µM)
EPLC-272H; first compound 0.001 µM
  relative viability: 0.294
EPLC-272H; first compound 0.003162 µM
  relative viability: 0.368
EPLC-272H; first compound 0.01 µM
  relative viability: 0.436
EPLC-272H; first compound 0.03162 µM
  relative viability: 0.341
EPLC-272H; first compound 0.1 µM
  relative viability: 0.338
HARA; first compound 0.001 µM
  relative viability: 0.383
HARA; first compound 0.003162 µM
  relative viability: 0.681
HARA; first compound 0.01 µM
  relative viability: 0.856
HARA; first compound 0.03162 µM
  relative viability: 0.47
HARA; first compound 0.1 µM
  relative viability: 0.649
COR-L 105; first compound 0.001 µM
  relative viability: 0.735
COR-L 105; first compound 0.003162 µM
  relative viability: 0.734
COR-L 105; first compound 0.01 µM
  relative viability: 0.743
COR-L 105; first compound 0.03162 µM
  relative viability: 0.732
COR-L 105; first compound 0.1 µM
  relative viability: 0.751
ChaGo-K-1; first compound 0.001 µM
  relative viability: 0.528
ChaGo-K-1; first compound 0.003162 µM
  relative viability: 0.584
ChaGo-K-1; first compound 0.01 µM
  relative viability: 0.585
ChaGo-K-1; first compound 0.03162 µM
  relative viability: 0.519
ChaGo-K-1; first compound 0.1 µM
  relative viability: 0.577
NCI-H1792; first compound 0.001 µM
  relative viability: 0.463
NCI-H1792; first compound 0.003162 µM
  relative viability: 0.691
NCI-H1792; first compound 0.01 µM
  relative viability: 0.66
NCI-H1792; first compound 0.03162 µM
  relative viability: 0.403
NCI-H1792; first compound 0.1 µM
  relative viability: 0.633
NCI-H1734; first compound 0.001 µM
  relative viability: 0.526
NCI-H1734; first compound 0.003162 µM
  relative viability: 0.605
NCI-H1734; first compound 0.01 µM
  relative viability: 0.629
NCI-H1734; first compound 0.03162 µM
  relative viability: 0.576
NCI-H1734; first compound 0.1 µM
  relative viability: 0.455
EKVX; first compound 0.001 µM
  relative viability: 0.307
EKVX; first compound 0.003162 µM
  relative viability: 0.413
EKVX; first compound 0.01 µM
  relative viability: 0.394
EKVX; first compound 0.03162 µM
  relative viability: 0.305
EKVX; first compound 0.1 µM
  relative viability: 0.648
NCI-H647; first compound 0.001 µM
  relative viability: 0.396
NCI-H647; first compound 0.003162 µM
  relative viability: 0.446
NCI-H647; first compound 0.01 µM
  relative viability: 0.573
NCI-H647; first compound 0.03162 µM
  relative viability: 0.448
NCI-H647; first compound 0.1 µM
  relative viability: 0.528
NCI-H2405; first compound 0.001 µM
  relative viability: 0.724
NCI-H2405; first compound 0.003162 µM
  relative viability: 0.815
NCI-H2405; first compound 0.01 µM
  relative viability: 0.798
NCI-H2405; first compound 0.03162 µM
  relative viability: 0.65
NCI-H2405; first compound 0.1 µM
  relative viability: 0.509
RERF-LC-KJ; first compound 0.001 µM
  relative viability: 0.732
RERF-LC-KJ; first compound 0.003162 µM
  relative viability: 0.796
RERF-LC-KJ; first compound 0.01 µM
  relative viability: 0.771
RERF-LC-KJ; first compound 0.03162 µM
  relative viability: 0.653
RERF-LC-KJ; first compound 0.1 µM
  relative viability: 0.449
NCI-H1993; first compound 0.001 µM
  relative viability: 0.496
NCI-H1993; first compound 0.003162 µM
  relative viability: 0.694
NCI-H1993; first compound 0.01 µM
  relative viability: 0.658
NCI-H1993; first compound 0.03162 µM
  relative viability: 0.517
NCI-H1993; first compound 0.1 µM
  relative viability: 0.62
SW 900; first compound 0.003162 µM
  relative viability: 0.579
SW 900; first compound 0.01 µM
  relative viability: 0.724
SW 900; first compound 0.03162 µM
  relative viability: 0.743
SW 900; first compound 0.1 µM
  relative viability: 0.577
HCC-44; first compound 0.001 µM
  relative viability: 0.922
HCC-44; first compound 0.003162 µM
  relative viability: 0.945
HCC-44; first compound 0.01 µM
  relative viability: 0.969
HCC-44; first compound 0.1 µM
  relative viability: 0.918
A-427; first compound 0.001 µM
  relative viability: 0.586
A-427; first compound 0.003162 µM
  relative viability: 0.565
A-427; first compound 0.01 µM
  relative viability: 0.658
A-427; first compound 0.03162 µM
  relative viability: 0.663
A-427; first compound 0.1 µM
  relative viability: 0.695
NCI-H522; first compound 0.01 µM
  relative viability: 0.667
NCI-H522; first compound 0.03162 µM
  relative viability: 0.699
NCI-H522; first compound 0.1 µM
  relative viability: 0.539
NCI-H460; first compound 0.001 µM
  relative viability: 0.443
NCI-H460; first compound 0.003162 µM
  relative viability: 0.648
NCI-H460; first compound 0.01 µM
  relative viability: 0.56
NCI-H460; first compound 0.03162 µM
  relative viability: 0.325
NCI-H460; first compound 0.1 µM
  relative viability: 0.306
NCI-H1650; first compound 0.001 µM
  relative viability: 0.462
NCI-H1650; first compound 0.003162 µM
  relative viability: 0.621
NCI-H1650; first compound 0.01 µM
  relative viability: 0.579
NCI-H1650; first compound 0.03162 µM
  relative viability: 0.588
NCI-H1650; first compound 0.1 µM
  relative viability: 0.757
LU99A; first compound 0.001 µM
  relative viability: 0.909
LU99A; first compound 0.003162 µM
  relative viability: 1.11
LU99A; first compound 0.01 µM
  relative viability: 0.905
LU99A; first compound 0.03162 µM
  relative viability: 0.999
LU99A; first compound 0.1 µM
  relative viability: 0.436
LK-2; first compound 0.001 µM
  relative viability: 0.327
LK-2; first compound 0.003162 µM
  relative viability: 0.338
LK-2; first compound 0.01 µM
  relative viability: 0.252
LK-2; first compound 0.03162 µM
  relative viability: 0.236
LK-2; first compound 0.1 µM
  relative viability: 0.26
NCI-H358; first compound 0.001 µM
  relative viability: 0.214
NCI-H358; first compound 0.003162 µM
  relative viability: 0.264
NCI-H358; first compound 0.01 µM
  relative viability: 0.229
NCI-H358; first compound 0.03162 µM
  relative viability: 0.195
NCI-H358; first compound 0.1 µM
  relative viability: 0.15
NCI-H1755; first compound 0.001 µM
  relative viability: 0.742
NCI-H1755; first compound 0.003162 µM
  relative viability: 0.81
NCI-H1755; first compound 0.01 µM
  relative viability: 0.78
NCI-H1755; first compound 0.03162 µM
  relative viability: 0.961
NCI-H1755; first compound 0.1 µM
  relative viability: 0.846
EMC-BAC-2; first compound 0.001 µM
  relative viability: 0.974
EMC-BAC-2; first compound 0.003162 µM
  relative viability: 0.996
EMC-BAC-2; first compound 0.01 µM
  relative viability: 1.02
EMC-BAC-2; first compound 0.03162 µM
  relative viability: 0.94
EMC-BAC-2; first compound 0.1 µM
  relative viability: 1
